Where two headings read alike, the source gives them in different places.
Key:
5HT2B receptors = target: T1, 5HT2B receptors (Homo sapiens, UniProt P41595); assay: Human 5-HT2B functional high throughput screening assay in CHO-K1 cells (calcium flux); type: cell-based; details: for EC50: CHO-K1 cells, calcium flux
T1 construct: expressed in transfected cells; host or cells: CHO-K1 cells
How it was run: (§1)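 Frozen CHO-K1 cells overexpressing the receptor were plated, serum-starved overnight, then loaded with Ca4 dye plus 2.5 mM probenecid for 60 min at room temperature. FLIPR fluorescence (ex 480/em 530 nm, 25 °C) after compound addition was normalized to serotonin; EC50 and Emax came from 4-parameter logistic fits.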

5HT2C receptors = target: T2, 5HT2C receptors (Homo sapiens, UniProt P28335); assay: Human 5-HT2C functional high throughput screening assay in CHO-K1 cells (calcium flux); type: cell-based; design: expressed in transfected cells; host or cells: CHO-K1 cells; details: for EC50: CHO-K1 cells, calcium flux; for Emax: CHO-K1, 5-HT2C, maximum functional response as percentage relative to the effect of serotonin
T2 sequence (P28335 33-458): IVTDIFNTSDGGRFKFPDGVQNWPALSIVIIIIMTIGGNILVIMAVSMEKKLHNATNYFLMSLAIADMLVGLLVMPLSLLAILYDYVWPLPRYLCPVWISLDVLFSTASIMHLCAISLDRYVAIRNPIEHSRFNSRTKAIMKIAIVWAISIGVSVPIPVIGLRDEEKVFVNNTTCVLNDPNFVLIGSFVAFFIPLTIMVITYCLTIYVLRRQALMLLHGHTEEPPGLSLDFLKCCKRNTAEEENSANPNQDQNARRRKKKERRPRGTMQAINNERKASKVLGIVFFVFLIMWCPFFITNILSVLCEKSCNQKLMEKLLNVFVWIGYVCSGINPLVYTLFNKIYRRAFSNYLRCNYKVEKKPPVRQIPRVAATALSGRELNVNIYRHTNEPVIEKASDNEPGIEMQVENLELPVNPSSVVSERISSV
How it was run: as §1

[1] = 5-HT2B agonist activity, read-out: EC50
[2] = 5-HT2B, maximum functional response as percentage relative to the effect of serotonin
[3] = 5-HT2C agonist activity, read-out: EC50

T1 sequence (P41595 whole entry): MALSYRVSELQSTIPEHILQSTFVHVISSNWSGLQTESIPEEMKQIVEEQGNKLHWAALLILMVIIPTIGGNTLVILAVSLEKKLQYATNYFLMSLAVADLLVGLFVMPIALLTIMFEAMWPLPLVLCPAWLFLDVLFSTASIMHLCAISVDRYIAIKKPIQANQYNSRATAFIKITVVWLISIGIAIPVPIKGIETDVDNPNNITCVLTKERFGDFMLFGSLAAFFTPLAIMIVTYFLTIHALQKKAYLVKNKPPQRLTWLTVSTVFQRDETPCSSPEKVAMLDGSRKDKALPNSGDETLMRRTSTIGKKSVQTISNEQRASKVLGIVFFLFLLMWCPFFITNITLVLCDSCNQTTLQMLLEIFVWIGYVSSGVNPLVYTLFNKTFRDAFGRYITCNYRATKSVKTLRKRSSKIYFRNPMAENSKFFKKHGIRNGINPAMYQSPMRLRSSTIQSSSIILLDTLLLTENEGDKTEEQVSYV

| SMILES | EC50 (5HT2B receptors; [1]) | Emax (5HT2B receptors; [2]) | EC50 (5HT2C receptors; [3]) | Emax (5HT2C receptors; read-out: Emax) | Emax (5HT2B receptors; CHO-K1) | EC50 (5HT2B receptors; EC50, 5-HT2B agonist activity) | Emax (5HT2C receptors) | EC50 (5HT2C receptors; EC50, 5-HT2C agonist activity) |
| --- | --- | --- | --- | --- | --- | --- | --- | --- |
| CN1C[C@H]2CNC(=O)c3cc(-c4cc(F)c(F)c(F)c4)ccc3[C@@H]2C1 (relative stereo) [Example 322, Trans-2-methyl-8-(3,4,5-trifluorophenyl)-2,3,3a,4,5,10b-hexahydropyrrolo[3,4-d][2]benzazepin-6(1H)-one] | > 10000 nM | inactive | 20 nM | 80% | – | – | – | – |
| C[C@H](Cc1ccccc1)Oc1ccc2c(c1)C(=O)NC[C@@H]1CN(Cc3ccccc3)C[C@@H]21 (mixture of isomers) [Example 118, Trans-2-benzyl-8-((R)-1-phenylpropan-2-yloxy)-1,2,3,3a,4,5-hexahydrobenzo[e]pyrrolo[3,4-c]azepin-6(10bH)-one] | > 10000 nM | inactive | 300 nM | > 120% | – | – | – | – |
| O=C1NC[C@@H]2CNC[C@H]2c2ncccc21 (relative stereo) [Example 153, Trans-7,7a,8,9,10,10a-hexahydropyrido[2,3-e]pyrrolo[3,4-c]azepin-5(6H)-one] | – | – | – | – | 30% | > 10000 nM | > 120% | 80 nM |
| Clc1cccc2c1NCC[C@@H]1CNC[C@@H]21 (relative stereo) [Example 392, Trans-7-chloro-1,2,3,3a,4,5,6,10b-octahydropyrrolo[3,4-d][1]benzazepine] | – | – | – | – | 65% | 40 nM | 100% | 0.7 nM |
| COC(=O)c1ccc2c(c1)C(=O)NC[C@@H]1CN(Cc3ccccc3)C[C@@H]21 (relative stereo) [Example 129, Trans-methyl 2-benzyl-6-oxo-1,2,3,3a,4,5,6,10b-octahydrobenzo[e]pyrrolo[3,4-c]azepine-8-carboxylate] | > 10000 nM | inactive | 200 nM | > 120% | – | – | – | – |
| CN1C[C@H]2CNC(=O)c3cc(Oc4ccc(F)cc4)ccc3[C@@H]2C1 (relative stereo) [Example 243, Trans-8-(4-fluorophenoxy)-2-methyl-1,2,3,3a,4,5-hexahydrobenzo[c]pyrrolo[3,4-e]azepin-6(10bH)-one] | > 10000 nM | inactive | 60 nM | > 120% | – | – | – | – |
| CCC(C)Oc1ccc2c(c1)C(=O)NC[C@@H]1CNC[C@@H]21 (relative stereo) [Example 165, Trans-8-sec-butoxy-1,2,3,3a,4,5-hexahydrobenzo[e]pyrrolo[3,4-c]azepin-6(10bH)-one] | – | inactive | – | – | – | > 10000 nM | > 120% | 80 nM |
| CS(=O)(=O)c1cccc(-c2cccc3c2OCC[C@H]2CNC[C@H]32)c1 (relative stereo) [Example 350, Trans-7-[3-(methylsulfonyl)phenyl]-2,3,3a,4,5,10b-hexahydro-1H-[1]benzoxepino[4,5-c]pyrrole] | > 10000 nM | inactive | 1000 nM | 75% | – | – | – | – |
| CC(C)CC(O)c1cccc(-c2ccc3c(c2)C(=O)NC[C@H]2CN(C)C[C@H]32)c1 (stereo partly drawn) [Example 312, (3aS,10bS)-8-[3-(1-Hydroxy-3-methylbutyl)phenyl]-2-methyl-2,3,3a,4,5,10b-hexahydropyrrolo[3,4-d][2]benzazepin-6(1H)-one] | > 10000 nM | inactive | 2 nM | 90% | – | – | – | – |
| CN1C[C@@H]2CCOc3c(-c4ccc(F)cc4)cccc3[C@H]2C1 (relative stereo) [Example 400, Trans-7-(4-fluorophenyl)-2-methyl-2,3,3a,4,5,10b-hexahydro-1H-[1]benzoxepino[4,5-c]pyrrole] | > 10000 nM | inactive | 800 nM | 70% | – | – | – | – |
| COc1ccc2c(c1)[C@H]1CNC[C@@H]1CC=C2 (relative stereo) [Example 266, Trans-9-methoxy-1,2,3,3a,4,10b-hexahydrobenzo[3,4]cyclohepta[1,2-c]pyrrole] | – | – | – | – | 25% | 400 nM | > 120% | 10 nM |
| COc1cc(F)ccc1-c1ccc2c(c1)C(=O)NC[C@@H]1CN(C)C[C@@H]21 (relative stereo) [Example 299, Trans-8-(4-fluoro-2-methoxyphenyl)-2-methyl-2,3,3a,4,5,10b-hexahydropyrrolo[3,4-d][2]benzazepin-6(1H)-one] | > 10000 nM | inactive | 10 nM | 100% | – | – | – | – |
| O=C1NC[C@@H]2CNC[C@H]2c2ccc(-c3c(F)cccc3F)cc21 (relative stereo) [Example 276, Trans-8-(2,6-difluorophenyl)-1,2,3,3a,4,5-hexahydrobenzo[e]pyrrolo[3,4-c]azepin-6(10bH)-one] | > 10000 nM | inactive | 8 nM | > 120% | – | – | – | – |
| COc1cc(C)ccc1-c1ccc2c(c1)C(=O)NC[C@@H]1CN(C)C[C@@H]21 (relative stereo) [Example 302, Trans-8-(2-methoxy-4-methylphenyl)-2-methyl-2,3,3a,4,5,10b-hexahydropyrrolo[3,4-d][2]benzazepin-6(1H)-one] | > 10000 nM | inactive | 70 nM | 95% | – | – | – | – |
| COc1ccccc1-c1ccc2c(c1)C(=O)NC[C@H]1CN(C)C[C@H]21 [Example 275, (3aS,10bS)-8-(2-Methoxyphenyl)-2-methyl-1,2,3,3a,4,5-hexahydrobenzo[e]pyrrolo[3,4-c]azepin-6(10bH)-one] | > 10000 nM | inactive | 20 nM | > 120% | – | – | – | – |
| COc1ccc2c(c1)C(=O)N(C)C[C@@H]1CN(C)C[C@@H]21 (relative stereo) [Example 190, Trans-8-methoxy-2,5-dimethyl-1,2,3,3a,4,5-hexahydrobenzo[e]pyrrolo[3,4-c]azepin-6(10bH)-one] | – | inactive | – | – | – | > 10000 nM | > 120% | 100 nM |
| Clc1cc(Br)c2c(c1)[C@@H]1CNC[C@@H]1CCO2 (relative stereo) [Example 393, Cis-7-bromo-9-chloro-2,3,3a,4,5,10b-hexahydro-1H-[1]benzoxepino[4,5-c]pyrrole] | – | – | – | – | 20% | 100 nM | 60% | 200 nM |
| CC(=O)c1cccc(-c2ccc3c(c2)C(=O)NC[C@H]2CN(C)C[C@H]32)c1 [Example 278, (3aS,10bS)-8-(3-Acetylphenyl)-2-methyl-1,2,3,3a,4,5-hexahydrobenzo[e]pyrrolo[3,4-c]azepin-6(10bH)-one] | > 10000 nM | inactive | 2 nM | 120% | – | – | – | – |
| O=C1NC[C@@H]2CN(Cc3ccccc3)C[C@H]2c2ncccc21 (relative stereo) [Example 151, Trans-9-benzyl-7,7a,8,9,10,10a-hexahydropyrido[2,3-e]pyrrolo[3,4-c]azepin-5(6H)-one] | – | inactive | – | – | – | > 10000 nM | > 120% | 70 nM |
| CN1C[C@H]2CNC(=O)c3cc(OCC4CCCCC4)ccc3[C@@H]2C1 (relative stereo) [Example 176, Trans-8-(cyclohexylmethoxy)-2-methyl-1,2,3,3a,4,5-hexahydrobenzo[e]pyrrolo[3,4-c]azepin-6(10bH)-one] | > 10000 nM | inactive | 200 nM | – | – | – | > 120% | – |
| c1ccc(CN2CC[C@@H]3CNC[C@H]3c3ccccc32)cc1 (relative stereo) [Example 329, Trans-6-benzyl-1,2,3,3a,4,5,6,10b-octahydropyrrolo[3,4-d][1]benzazepine] | 2000 nM | – | 1000 nM | – | 15% | – | 70% | – |
| O=C1NC[C@@H]2CNC[C@H]2c2ccc(OCc3c(F)cccc3F)cc21 (relative stereo) [Example 168, Trans-8-(2,6-difluorobenzyloxy)-1,2,3,3a,4,5-hexahydrobenzo[e]pyrrolo[3,4-c]azepin-6(10bH)-one] | > 10000 nM | inactive | 1 nM | > 120% | – | – | – | – |
| Nc1ccc2c(c1)C(=O)NC[C@@H]1CNC[C@@H]21 (relative stereo) [Example 144, Trans-8-amino-1,2,3,3a,4,5-hexahydrobenzo[e]pyrrolo[3,4-c]azepin-6(10bH)-one] | – | – | – | – | 60% | 1000 nM | > 120% | 100 nM |
| Nc1ccc2c(c1)C(=O)NC[C@@H]1CNC[C@H]21 (relative stereo) [Example 145, Cis-8-amino-1,2,3,3a,4,5-hexahydrobenzo[e]pyrrolo[3,4-c]azepin-6(10bH)-one] | – | inactive | – | – | – | > 10000 nM | 15% | 3000 nM |

Reference: patent US8846951B2 (AbbVie Inc., priority 2009, dated 2014)
